The target of one data set is recombinant human MGAT2 (Homo sapiens (Human), UniProt Q3SYC2). The experiment in a line: Measurement of human MGAT2 inhibitory activity. The format is biochemical. The essentials: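 RapidFire ESI-MS read-out of the diolein/diolein-d5 peak ratio gave % inhibition, with no-enzyme and full-enzyme wells as 100% and 0%. Reactions ran 1 h at room temperature at pH 7.4 (phosphate, 2 mmol/L DTT), using Flag-tagged human MGAT2 membranes from Sf9 cells and a substrate solution of 30 μmol/L 2-oleoylglycerol and 10 μmol/L oleoyl-CoA.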
recombinant human MGAT2, sequence (Q3SYC2 whole entry): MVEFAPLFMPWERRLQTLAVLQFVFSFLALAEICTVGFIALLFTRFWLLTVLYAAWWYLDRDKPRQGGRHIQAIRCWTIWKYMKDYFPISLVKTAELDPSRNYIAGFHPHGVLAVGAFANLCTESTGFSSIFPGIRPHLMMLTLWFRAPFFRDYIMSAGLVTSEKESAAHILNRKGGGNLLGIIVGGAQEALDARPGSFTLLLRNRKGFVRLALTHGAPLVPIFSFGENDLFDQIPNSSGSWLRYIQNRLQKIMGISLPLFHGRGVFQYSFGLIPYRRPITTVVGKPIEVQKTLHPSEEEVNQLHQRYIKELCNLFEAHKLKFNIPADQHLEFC

A short description of data set [1]: Solubility test (1% DMSO addition, pH 6.8 artificial intestinal juice). The format is physicochemical. To be noted: 16 hours at 25° C.; for solubility at 16 h: pH 6.8 artificial intestinal juice with 1% DMSO, kinetic from dmso stock. How it is done: The solubility of the compound of the present invention was determined under 1% DMSO addition conditions. 10 mmol/L solution of the compound was prepared with DMSO, and 6 μL of the solution of the compound of the present invention was added to 594 μL of pH 6.8 artificial intestinal juice (118 mL of 0.2 mol/L NaOH test solution and water were added to 250 mL of 0.2 mol/L potassium dihydrogen phosphate test solution to reach 1000 mL). The mixture was left standing for 16 hours at 25° C., and the mixture was vacuum-filtered. The filtrate was two-fold diluted with methanol/water=1/1 (V/V), and the compound concentration in the filtrate was measured with HPLC or LC/MS/MS by the absolute calibration method.

Data set [2] can be described thus: Metabolism stability test. The format is in vitro ADME. To be noted: human liver microsomes, 30 minutes, 37° C., NADPH, 0.5 μmol/L of test compound. How it is done:
Using commercially available pooled human hepatic microsomes, the compound of the present invention was reacted for a constant time, a remaining rate was calculated by comparing a reacted sample and an unreacted sample, thereby, a degree of metabolism of the compound of the present invention in liver was assessed.
A reaction was performed (oxidative reaction) at 37° C. for 0 minute or 30 minutes in the presence of 1 mmol/L NADPH in 0.2 mL of a buffer (50 mmol/L Tris-HCl pH 7.4, 150 mmol/L potassium chloride, 10 mmol/L magnesium chloride) containing 0.5 mg protein/mL of human liver microsomes. After the reaction, 50 μL of the reaction solution was added to 100 μL of a methanol/acetonitrile=1/1 (v/v) solution, mixed and centrifuged at 3000 rpm for 15 minutes. The compound of the present invention in the supernatant was quantified by LC/MS/MS, and a remaining amount of the compound of the present invention after the reaction was calculated, letting a compound amount at 0 minute reaction time to be 100%. (Result) Remaining rate was shown at 0.5 μmol/L of test compound.

A further data set addresses CYP1A2 (Homo sapiens (Human), UniProt P05177). The experiment in a line: CYP inhibition test (7-ethoxyresorufin O-deethylation). It is filed as in vitro ADME. To be noted: pooled human liver microsomes. The text has this: (§1) Using commercially available pooled human hepatic microsome, and employing, as markers, 7-ethoxyresorufin O-deethylation (CYP1A2), tolbutamide methyl-hydroxylation (CYP2C9), mephenytoin 4′-hydroxylation (CYP2C19), dextromethorphan O-demethylation (CYP2D6), and terfenadine hydroxylation (CYP3A4) as typical substrate metabolism reactions of human main five CYP enzyme forms (CYP1A2, 2C9, 2C19, 2D6, 3A4), an inhibitory degree of each metabolite production amount by the compound of the present invention was assessed. […]
(§2) As a reaction solution, each five kinds of substrates, human liver microsomes, or compound of the present invention in 50 mmol/L Hepes buffer were added to a 96-well plate at the composition as described above, and NADPH, as a cofactor was added to initiate metabolism reactions. […] After the centrifugation at 3000 rpm for 15 minutes, resorufin (CYP1A2 metabolite) in the supernatant was quantified by a fluorescent multilabel counter or LC/MS/MS, and tolbutamide hydroxide (CYP2C9 metabolite), mephenytoin 4′ hydroxide (CYP2C19 metabolite), dextrorphan (CYP2D6 metabolite), and terfenadine alcohol (CYP3A4 metabolite) were quantified by LC/MS/MS.
(§3) Addition of only DMSO being a solvent dissolving a drug to a reaction system was adopted as a control (100%). Remaining activity (%) was calculated. […]
(In general: Microsomes from liver hold many membrane-bound enzymes, among them those of drug oxidation.)

For data set [3], the target named is T1, CYP3A4 (Homo sapiens (Human), UniProt P08684). Briefly: CYP inhibition test (terfenadine hydroxylation). To be noted: pooled human liver microsomes. The format is in vitro ADME.
T1 sequence (P08684 whole entry): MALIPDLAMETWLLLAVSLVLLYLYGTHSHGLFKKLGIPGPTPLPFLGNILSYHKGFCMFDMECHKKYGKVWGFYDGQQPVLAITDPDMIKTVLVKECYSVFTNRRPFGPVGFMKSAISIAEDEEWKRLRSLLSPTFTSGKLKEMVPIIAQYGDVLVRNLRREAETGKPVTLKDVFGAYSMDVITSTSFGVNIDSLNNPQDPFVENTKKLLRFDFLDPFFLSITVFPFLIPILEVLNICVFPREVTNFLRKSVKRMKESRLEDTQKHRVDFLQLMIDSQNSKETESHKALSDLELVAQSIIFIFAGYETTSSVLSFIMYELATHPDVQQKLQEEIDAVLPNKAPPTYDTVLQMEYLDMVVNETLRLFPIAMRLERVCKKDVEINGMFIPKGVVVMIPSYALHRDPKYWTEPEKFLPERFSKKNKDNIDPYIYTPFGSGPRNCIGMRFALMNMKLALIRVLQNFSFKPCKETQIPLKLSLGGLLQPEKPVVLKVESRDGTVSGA
Description: as §1, §2, §3

The target of data set [4] is T1, CYP3A4. The experiment in a line: CYP3A4 (MDZ) MBI test. The format is in vitro ADME. To be noted: pooled human liver microsomes, preincubation 0 or 30 min. How it is done:
CYP3A4 (MDZ) MBI test is a test of investigating mechanism based inhibition (MBI) potential on CYP3A4 by the enhancement of inhibitory degree of a metabolic reaction caused by the compound of the present invention. CYP3A4 inhibition was evaluated using pooled human liver microsomes by 1-hydroxylation reaction of midazolam (MDZ) as a marker reaction. […]
Pooled human liver microsomes and a solution of the compound of the present invention in K-Pi buffer (pH 7.4) as a pre-reaction solution were added to a 96-well plate at the composition of the pre-reaction. […] The plate on which each index reaction had been performed was centrifuged at 3000 rpm for 15 minutes, and thereafter 1-hydroxylated midazolam in the supernatant was quantified by LC/MS/MS.
The sample adding DMSO as a solvent to a reaction system instead of a solution dissolving the compound of the present invention was adopted as a control (100%). Remaining activity (%) was calculated at each concentration of the compound of the present invention compared to a control, and IC value was calculated by reverse-presumption by a logistic model using a concentration and an inhibition rate. […]

The target of the next data set is CYP2D6 (Homo sapiens (Human), UniProt P10635). The experiment in a line: CYP inhibition test (dextromethorphan O-demethylation). It is filed as in vitro ADME. To be noted: pooled human liver microsomes.
CYP2D6, sequence (P10635 whole entry): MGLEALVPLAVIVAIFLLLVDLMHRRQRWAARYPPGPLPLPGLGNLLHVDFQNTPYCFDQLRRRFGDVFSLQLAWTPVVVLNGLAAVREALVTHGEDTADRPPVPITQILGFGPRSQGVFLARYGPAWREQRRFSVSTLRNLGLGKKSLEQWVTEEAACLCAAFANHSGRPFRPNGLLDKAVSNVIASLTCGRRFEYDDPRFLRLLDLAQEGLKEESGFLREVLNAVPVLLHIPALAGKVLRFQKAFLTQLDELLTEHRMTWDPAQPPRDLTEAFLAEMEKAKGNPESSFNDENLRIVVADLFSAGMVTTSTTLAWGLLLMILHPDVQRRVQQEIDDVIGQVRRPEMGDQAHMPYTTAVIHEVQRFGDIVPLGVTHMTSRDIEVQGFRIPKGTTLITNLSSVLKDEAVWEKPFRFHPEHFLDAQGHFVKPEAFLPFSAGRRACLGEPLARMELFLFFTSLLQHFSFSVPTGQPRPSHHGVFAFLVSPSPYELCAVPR
Description: as §1, §2, §3

The target of the next data set is CYP2C19 (Homo sapiens (Human), UniProt P33261). Briefly: CYP inhibition test (mephenytoin 4'-hydroxylation). It is filed as in vitro ADME. To be noted: pooled human liver microsomes.
CYP2C19, sequence (P33261 whole entry): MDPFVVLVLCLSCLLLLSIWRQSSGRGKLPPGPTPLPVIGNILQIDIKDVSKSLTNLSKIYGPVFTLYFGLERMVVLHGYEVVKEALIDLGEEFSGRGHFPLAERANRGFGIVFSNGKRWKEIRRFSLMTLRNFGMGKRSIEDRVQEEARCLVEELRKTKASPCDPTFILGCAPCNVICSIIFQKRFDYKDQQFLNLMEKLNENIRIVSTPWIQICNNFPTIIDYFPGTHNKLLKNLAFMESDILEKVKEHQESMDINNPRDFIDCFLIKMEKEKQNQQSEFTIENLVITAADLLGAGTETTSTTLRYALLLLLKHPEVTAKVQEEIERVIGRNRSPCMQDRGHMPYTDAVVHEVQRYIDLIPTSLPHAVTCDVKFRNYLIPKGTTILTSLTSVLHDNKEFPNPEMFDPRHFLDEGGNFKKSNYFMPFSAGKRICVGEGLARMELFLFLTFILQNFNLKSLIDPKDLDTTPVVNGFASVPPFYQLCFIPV
Description: as §1, §2, §3

In the next data set the target is CYP2C9 (Homo sapiens (Human), UniProt P11712). The experiment in a line: CYP inhibition test (tolbutamide methyl-hydroxylation). As to conditions: pooled human liver microsomes. The format is in vitro ADME.
CYP2C9, sequence (P11712 whole entry): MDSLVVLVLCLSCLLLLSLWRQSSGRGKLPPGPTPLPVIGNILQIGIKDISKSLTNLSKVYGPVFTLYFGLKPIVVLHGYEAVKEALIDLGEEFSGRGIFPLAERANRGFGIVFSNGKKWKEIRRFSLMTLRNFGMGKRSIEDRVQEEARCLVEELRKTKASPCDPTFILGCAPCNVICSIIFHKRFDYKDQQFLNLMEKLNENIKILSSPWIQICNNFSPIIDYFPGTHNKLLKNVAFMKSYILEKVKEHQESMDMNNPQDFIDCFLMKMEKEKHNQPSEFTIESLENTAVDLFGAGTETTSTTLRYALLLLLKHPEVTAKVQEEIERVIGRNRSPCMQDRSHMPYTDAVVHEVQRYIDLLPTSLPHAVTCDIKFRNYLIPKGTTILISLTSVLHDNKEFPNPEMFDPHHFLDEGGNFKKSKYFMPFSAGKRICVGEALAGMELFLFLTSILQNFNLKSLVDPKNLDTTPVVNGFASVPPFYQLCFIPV
Description: as §1, §2, §3

Where [5] appears, read: read-out: IC50 (concentration exhibiting 50% enzyme inhibition), Table 52.
Where [6] appears, read: read-out: IC50 (concentration exhibiting 50% enzyme inhibition), Table 53.

Several values for one entry are separate records, joined by “and”; a condition that tells them apart may be missing. Equal entries are not always repeated. Where two headings read alike, the source gives them in different places. A value given as a limit tells only on which side of the number the result lay.

CYP1A2, sequence (P05177 whole entry): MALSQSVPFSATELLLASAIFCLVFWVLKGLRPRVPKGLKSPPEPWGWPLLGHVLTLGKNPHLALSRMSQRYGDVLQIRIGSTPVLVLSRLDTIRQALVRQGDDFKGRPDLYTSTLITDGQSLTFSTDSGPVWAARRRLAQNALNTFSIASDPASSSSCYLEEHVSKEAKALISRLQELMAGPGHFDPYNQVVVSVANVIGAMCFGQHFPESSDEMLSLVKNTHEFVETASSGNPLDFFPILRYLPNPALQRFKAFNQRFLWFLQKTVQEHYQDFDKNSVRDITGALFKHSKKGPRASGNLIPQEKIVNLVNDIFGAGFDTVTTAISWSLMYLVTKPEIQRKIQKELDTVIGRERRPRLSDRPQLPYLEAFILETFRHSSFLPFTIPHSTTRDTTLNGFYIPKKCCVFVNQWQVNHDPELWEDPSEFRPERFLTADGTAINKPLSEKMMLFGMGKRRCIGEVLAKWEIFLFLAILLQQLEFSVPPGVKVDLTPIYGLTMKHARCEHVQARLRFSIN

Consider `O=C1N[C@@]2(CCc3cc(OCCCC(F)(F)F)ccc32)Cc2nn(CCC3CC3)c(-c3nn[nH]n3)c21` [Compound I-24], for which the IC50 on recombinant human MGAT2 (setting [5]) amounted to 8.82 nM. The Solubility – broadly, the dissolved amount per volume that the medium holds – in [1] was greater than 50 µM. Moreover, in data set [2], the “Remaining rate (%)” value stood at 78.2%.
On to `CS(=O)(=O)CC(=O)Nc1c2c(nn1-c1ccc(C#N)cn1)C[C@]1(CCc3cc(N4CC(F)(F)C4)ccc31)NC2=O` [Compound I-67], for which the IC50 on recombinant human MGAT2 (setting [5]) worked out at 7 nM. The solubility (usually the concentration that dissolves in the medium under given conditions) at 16 h in [1] was greater than 50 µM. The “Remaining rate (%)” value in [2] amounted to 89%.
The like results for `CS(=O)(=O)CC(=O)Nc1c2c(nn1-c1ccc(C#N)cn1)C[C@@]1(CCc3cc(OCC(F)(F)F)ccc31)NC2=O` [Compound I-167] were, in that order, 3.3 nM, greater than 50 µM and 89%.
For the compound `CS(=O)(=O)CC(=O)Nc1c2c(nn1-c1ccc(C#N)cn1)C[C@](c1ccc(OCC(F)(F)F)cc1F)(C(F)(F)F)NC2=O` [Compound I-170], the IC50 at recombinant human MGAT2 (setting [5]) was 5.1 nM. Further, the solubility at 16 h in [1] is greater than 50 µM. Moreover, the “Remaining rate (%)” value in data set [2] was found to be 100%.
The like results for `O=C1N[C@@]2(CCOc3cc(OCCCC(F)(F)F)ccc32)Cc2nn(CCC3CC3)c(-c3nn[nH]n3)c21` [Compound I-200] were, in that order, 5.6 nM, greater than 50 µM and 94%.
As for `Cc1ccc(-n2nc3c(c2NC(=O)CS(C)(=O)=O)C(=O)N[C@@]2(CCc4cc(OCCCC(F)(F)F)ccc42)C3)nn1` [II-103], the IC50 against CYP1A2, against CYP3A4 [3], against CYP2D6, at CYP2C19 and against CYP2C9 was greater than 20000 nM throughout. The “CYP3A4 (MDZ) MBI judgement (Shifted IC)” value at CYP3A4 [4] was “Negative (a case that Shifted IC was 1.0 or less was regarded as Negative)”. This compound also registered a solubility at 16 h in [1] greater than 50 µM. The “Remaining rate (%)” value in data set [2] amounted to 95.6%.
As to `CS(=O)(=O)CC(=O)Nc1c2c(nn1CCCOC(F)(F)F)C[C@@]1(CCOc3cc(OCC(F)(F)F)ccc31)NC2=O` [II-121], the IC50 at recombinant human MGAT2 (setting [6]) turned out to be 2.91 nM. Besides, in data set [1], the “Solubility” value is greater than 50 µM. The “Remaining rate (%)” value in data set [2] is listed as 89.7%.
In the case of `Cc1ccc(-n2nc3c(c2C(=O)NS(=O)(=O)C2CC2)C(=O)N[C@@]2(CCc4cc(OCC(F)(F)F)ccc42)C3)nc1` [II-202], the IC50 on recombinant human MGAT2 (setting [6]) was 9.13 nM and < 1 nM. In data set [1], this compound returned a solubility at 16 h greater than 50 µM. Moreover, the “Remaining rate (%)” value in data set [2] is recorded as 98.7%.
Consider `Cc1cc(-n2nc3c(c2NC(=O)CS(C)(=O)=O)C(=O)N[C@@]2(CCOc4cc(OCCCC(F)(F)F)ccc42)C3)no1` [II-233], for which the IC50 on recombinant human MGAT2 (setting [6]) was 0.224 nM. The solubility at 16 h in [1] was greater than 50 µM. The “Remaining rate (%)” value in data set [2] worked out at 94.7%.
As to `Cc1ccc(-n2nc3c(c2NC(=O)C2CS(=O)(=O)C2)C(=O)N[C@@]2(CCOc4cc(OCC(F)(F)F)ccc42)C3)nc1` [II-270], at recombinant human MGAT2 (setting [6]), the IC50 turned out to be 1.26 nM. Moreover, the solubility at 16 h in data set [1] is greater than 50 µM. The “Remaining rate (%)” value in [2] stood at 99.9%.
With `CS(=O)(=O)CC(=O)Nc1c2c(nn1-c1ccc(F)cn1)C[C@]1(CCOc3cc(OCC(F)(F)F)ccc31)NC2=O` [II-295], the IC50 on recombinant human MGAT2 (setting [6]) is less than 1 nM. The compound further came in with a solubility at 16 h in data set [1] greater than 50 µM. Moreover, in data set [2], the “Remaining rate (%)” value is on record as 102%.

The values are drawn from US11198695B2, “Fused ring derivative having MGAT-2 inhibitory activity” (Shionogi & Co., Ltd., priority 2017, dated 2021).
